Source: patent US20090227606A1, “Methods for Preventing or Treating Acute and Chronic Pain” (priority 2006, published 2009)
“Also recorded” adds a separate entry of the source.

Legend:
[1] = test system: primary cultured astrocytes; assay: Astrocyte morphology and process length, phase contrast microscopy; type: cell-based, rat; settings: 3 days or 7 days of treatment, phase contrast microscopy
Description: Astrocyte cultures were prepared from the cortices of neonatal rats (1-3 days old) using the Worthington Papain Dissociation System (Worthington Biochemical Corporation, Lakewood, N.J.) according to the method of Huettner and Baughman (1986. J. Neurosci. 6:3044-3060). Briefly, cortices of neonatal rats were dissected, treated with papain (20 U/ml), dissociated by trituration and plated in 75 cm^2 flasks in Dulbecco's modified Eagle's medium (DMEM) supplemented with 10% charcoal-stripped fetal bovine serum (FBS), 1% GlutaMax and 1% penicillin/streptomycin (P/S, 100 U/ml penicillin, 100 μg/ml streptomycin, P/S). Cells were fed twice weekly until they reached confluence (Day in vitro, DIV 10-12) at which point they were mechanically shaken for 1 hr on an orbital shaker to remove any remaining oligodendrocytes and microglia. Subsequently, cultures were treated with trypsin for 30 minutes at 37° C. and re-plated into 6 or 12-well dishes at a density of about 3.0×10^4 cells/cm^2. Resultant cultures were greater than 95% astrocytic as determined by GFAP immunostaining.
After approximately 14 days (2 days after subplating into plates, DIV 14) astrocytes had formed a confluent monolayer. […] Phase contrast microscopy was then carried out in order to assess the morphology of cells after the various treatments. Length of astrocyte processes was quantified by measuring all processes in 2-3 phase contrast images/group by an independent observer, blinded to the treatment groups using Image J v1.34s (National Institutes of Health, Bethesda, Md.).

[2] = test system: GLAST; assay: Immunohistochemistry of rat lumbar spinal cord, GLAST; type: in vivo; settings: day 12 post-transection, ipsilateral side
Description: For assessment of GFAP, GLT-1 and GLAST immunoreactivity, a separate group of rats (n=4/treatment) were anesthetized and transcardially perfused with 0.1 M PBS (phosphate-buffered saline), pH 7.4, followed by 4% paraformaldehyde in PBS on day 12 post-L5 spinal nerve transection. Lumbar spinal cord sections were identified, isolated, and processed as described previously (Colburn, R. W. et al. 1997. J. Neuroimmunol. 79:163-175). Free-floating, […] were cut in a cryostat and processed for immunofluorescence. Sections were blocked with 5% FBS/0.1% Triton-X 100 for 1 hour at room temperature (RT). For double immunofluorescence, spinal sections were incubated with a mixture of rabbit polyclonal anti-GLT-1 (1:500) or guinea pig anti-GLAST (1:5000, Chemicon, Temecula, Calif.), and mouse anti-GFAP G-A-5 (astrocyte marker, 1:400, Sigma Chemical Co., St. Louis, Mo.) in 3% FBS/0.1% triton-X 100/TBS over night at 4° C., washed, incubated in a mixture of goat anti-rabbit Alexa Fluor™-555 and goat anti-mouse Alexa Fluor™-488 (1:250, Molecular Probes, Eugene, Oreg.) secondary antibodies in 3% FBS/0.1% triton-X 100/TBS for 1 hour at RT. To control for nonspecific staining, control sections were incubated in the absence of primary antibodies. The sections were examined with a fluorescence microscope, and images were captured with a Q-Fire cooled camera. […]

[3] = test system: GFAP; assay: GFAP expression in mouse spinal cord dorsal horn; type: in vivo; settings: dorsal horn upper laminae, day 12, 10 mg/kg i.p. daily
Description: (§1) With these in vivo data collected, further experiments were performed in the transgenic mice to more clearly define the effects of propentofylline treatment on GLT-1 and GLAST in the spinal cord. As discussed above, following in vivo testing, mice were transcardially perfused and tissue was fixed with paraformaldehyde. Lumbar spinal cord sections were identified and post-fixed in paraformaldehyde. After one week in sucrose to prevent freeze fracture, spinal cord segments were frozen in dry ice, mounted and prepared with cryostat sectioning. Sections were then subjected to immunohistochemical analysis. […] In order to quantitate the relative number of eGFP (marker for GLT-1) or DsRed (marker for GLAST) puncta in each spinal cord dorsal horn, images using a fluorescence microscope were taken with a Q-Fire cooled camera (397 ms exposure). […] An observer blind to the treatment groups was used to count the relative number of GLT-1 or GLAST positive puncta in the ipsilateral (injured) dorsal horn versus the contralateral (non-injured) dorsal horn. […]
(§2) As described previously with rats, mice were transcardially perfused with 0.1 M PBS (phosphate-buffered saline), pH 7.4, followed by 4%-paraformaldehyde in PBS on day 12 post-L5 spinal nerve transection. […] The sections were examined with a fluorescence microscope, and images were captured with a Q-Fire cooled camera. […]

[4] = test system: GLT-1; assay: eGFP-GLT-1-positive puncta in mouse spinal cord dorsal horn; type: in vivo
Description: With these in vivo data collected, further experiments were performed in the transgenic mice to more clearly define the effects of propentofylline treatment on GLT-1 and GLAST in the spinal cord. As discussed above, following in vivo testing, mice were transcardially perfused and tissue was fixed with paraformaldehyde. Lumbar spinal cord sections were identified and post-fixed in paraformaldehyde. After one week in sucrose to prevent freeze fracture, spinal cord segments were frozen in dry ice, mounted and prepared with cryostat sectioning. Sections were then subjected to immunohistochemical analysis. […] In order to quantitate the relative number of eGFP (marker for GLT-1) or DsRed (marker for GLAST) puncta in each spinal cord dorsal horn, images using a fluorescence microscope were taken with a Q-Fire cooled camera (397 ms exposure). […] An observer blind to the treatment groups was used to count the relative number of GLT-1 or GLAST positive puncta in the ipsilateral (injured) dorsal horn versus the contralateral (non-injured) dorsal horn. […] For both reporters (GLT-1, green color; GLAST, red color), diffuse, cytoplasmic and punctate, perinuclear expression was observed that overlapped with GFAP (blue color) in some, but not all cases.
Transgenic mice on a C57B1/6 background were created according to the methods previously described (Regan et al. 2006. J. Neuroscience, in press). Briefly, in order to determine where in the central nervous system GLAST is expressed, transgenic mice were created using a bacterial artificial chromosome containing the GLAST gene plus 18 kb of DNA upstream of the first exon and 60 kb downstream of the last exon. DsRed cDNA was inserted into the first exon to allow expression of DsRed instead of GLAST when the promoter is active. […]
as §2

[5] = test system: GLAST; assay: DsRed-GLAST-positive puncta in mouse spinal cord dorsal horn; type: in vivo
Description: as §1, §2

[6] = L5/propentofylline group, day 12

CCCn1cnc2c1c(=O)n(CCCCC(C)=O)c(=O)n2C [propentofylline]
astrocyte morphology [1]: dose-dependent shift from a flat, polygonal shape to a stellate, process-bearing shape
GLAST immunoreactivity in dorsal horn [2]: did not enhance GLAST immunoreactivity on the ipsilateral side
injury-induced GFAP expression [3]: suppressed injury-induced GFAP expression
eGFP-GLT-1-positive puncta in injured mice, in words [4, 6]: reversed with propentofylline administration; also recorded: restored levels of eGFP-GLT-1-positive puncta to that of the contralateral side
ipsilateral versus contralateral ratio of eGFP-GLT-1-positive puncta [4, 6]: 1
eGFP-GLT-1-positive puncta in sham mice ([4]; sham/propentofylline group): did not lead to further increases in GLT-1 above normal expression levels
DsRed-GLAST-positive puncta in injured mice ([5]; L5/propentofylline vs L5/saline group, day 12): significantly enhanced the number of DsRed-GLAST-positive puncta; also recorded: increased the levels back to that seen in the contralateral side
DsRed-GLAST expression in sham mice ([5]; sham/propentofylline group): unaffected
